# Assay results reported in the supplement of paper PMC12137928.
# Structures can show the parent of a compound that is named as a salt.
# What was measured:
# HCT116 [1] = test: efficacy (maximum % inhibition of viability vs DMSO); higher = more cytotoxic; conditions: 72 h
# Procedure, shortened: (§1)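 IC50 and maximal efficacy were derived from four-parameter Hill curve fits. The underlying CellTiter-Glo luminescence was scaled so that vehicle equals 0% and positive control equals -100%, and was then pattern-corrected. HCT116 cells had been seeded in 1536-well plates at 250 per well.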
# HCT116 [2] = conditions: 72 h
# Procedure, shortened: as §1
SMILES,efficacy (HCT116 [1]; ICRF193 0 nM),efficacy (HCT116 [1]; ICRF193 200 nM),IC50 cell viability (HCT116 [2]; ICRF193 0 nM),IC50 cell viability (HCT116 [2]; ICRF193 200 nM)
Cc1nnc2n1-c1sc(CCc3ccc(CC(C)C)cc3)cc1C(c1ccccc1Cl)=NC2C (stereo not given) [Israpafant],98.7%,114%,16.4 µM,23.1 µM
COc1ccc(CN2CCN(C(c3ccc(F)cc3)c3ccc(F)cc3)CC2)c(OC)c1OC [Lomerizine dihydrochloride],130%,104%,20.6 µM,23.1 µM
CCCCCCCCCC(=O)OCCN1CCN(CCCN2c3ccccc3Sc3ccc(C(F)(F)F)cc32)CC1 [Fluphenazine decanoate dihydrochloride],81%,99.6%,20.6 µM,20.6 µM
CC[C@H](C)[C@@H]([C@@H](CC(=O)N1CCC[C@H]1[C@H](OC)[C@@H](C)C(=O)NCCc1ccccc1)OC)N(C)C(=O)[C@@H](NC(=O)[C@H](C(C)C)N(C)C)C(C)C [Auristatin PE],–,42.4%,> 45.8 µM,0.00461 µM
O=C(NC(=O)c1c(F)cccc1F)Nc1cc(Cl)c(OC(F)(F)C(F)C(F)(F)F)cc1Cl (stereo not given) [Lufenuron],–,41.2%,> 45.8 µM,18.3 µM
COc1c(OCCCN2CCOCC2)ccc2c1N=C(NC(=O)c1cnc(N)nc1)N1CCN=C21 [Copanlisib],59.1%,65.9%,0.944 µM,0.473 µM
Cc1cccc(C)c1OCC(=O)N[C@@H](Cc1ccccc1)[C@@H](O)C[C@H](Cc1ccccc1)NC(=O)[C@H](C(C)C)N1CCCNC1=O [Lopinavir],50.2%,73.7%,18.3 µM,29.1 µM
C=C1CC[C@H](O)C/C1=C/C=C1\CCC[C@]2(C)[C@@H]([C@H](C)/C=C/[C@H](C)C(C)C)CC[C@@H]12 [ERGOCALCIFEROL],–,56.2%,> 45.8 µM,29.1 µM
O=C(Nc1ccc(Cl)cc1)Nc1ccc(Cl)c(Cl)c1 [Triclocarban],102%,104%,18.3 µM,13 µM
CCCC1CCCCN1 (racemic) [dl-Coniine],–,66.1%,> 45.8 µM,4.11 µM
Cc1nc2c([nH]1)-c1ccccc1N(C(=O)c1ccc(NC(=O)c3ccccc3-c3ccccc3)cc1)CC2 [Conivaptan hydrochloride],–,60%,> 45.8 µM,29.1 µM
CN1CCC(CN2c3ccccc3Sc3ccccc32)C1 (stereo not given) [Methdilazine hydrochloride],–,53.5%,> 45.8 µM,18.3 µM
CC(C)(C)CC(=O)OCC(=O)[C@@]1(O)CC[C@H]2[C@@H]3CCC4=CC(=O)C=C[C@]4(C)[C@H]3[C@@H](O)C[C@@]21C [Prednisolone tebutate],–,41.9%,> 45.8 µM,29.1 µM
COc1cc(C(=O)OCCCN2CCCN(CCCOC(=O)c3cc(OC)c(OC)c(OC)c3)CC2)cc(OC)c1OC [Dilazep],–,51.1%,> 45.8 µM,29.1 µM
Cc1ccc(C(=O)OCc2ccc([C@@H](CN)C(=O)Nc3ccc4cnccc4c3)cc2)c(C)c1 [Netarsudil],104%,94.1%,14.2 µM,8.96 µM
CCC(=O)c1ccc2c(c1)N(CCCN(C)C)c1ccccc1S2 [Propionylpromazine hydrochloride],–,60.1%,> 45.8 µM,23.1 µM
C[C@H]1O[C@@H](O[C@H]2[C@@H](O)C[C@H](O[C@H]3[C@@H](O)C[C@H](O[C@H]4CC[C@@]5(C)[C@H](CC[C@@H]6[C@@H]5C[C@@H](O)[C@]5(C)[C@@H](C7=CC(=O)OC7)CC[C@]65O)C4)O[C@@H]3C)O[C@@H]2C)C[C@H](O)[C@@H]1O [Digoxin],76.2%,83.8%,0.183 µM,0.146 µM
CCOC1O[C@H]([C@@H](COCc2ccccc2)OCc2ccccc2)[C@H](OCc2ccccc2)[C@H]1O (stereo not given in full) [Tribenoside],106%,92.1%,29.1 µM,18.3 µM
Nc1nc(=S)c2[nH]cnc2[nH]1 [6-Thioguanine],97.5%,91.8%,3.66 µM,2.06 µM
Cc1[nH]c2ccccc2c1CCNCc1ccc(/C=C/C(=O)NO)cc1 [Panobinostat],95.6%,94.8%,0.0651 µM,0.058 µM
Oc1c(I)cc(I)c2cccnc12 [Iodoquinol],84.8%,91.7%,13 µM,10.3 µM
CCCCCOc1ccccc1/C(=C\SC)n1ccnc1 [Neticonazole],48.1%,51.1%,16.4 µM,16.4 µM
CCOc1ccc(Cc2nccc3cc(OCC)c(OCC)cc23)cc1OCC [Ethaverine hydrochloride],61.3%,–,6.51 µM,> 45.8 µM
CN(C)CCCN1c2ccccc2CCc2ccccc21 [Imipramine],–,40.6%,> 45.8 µM,13 µM

SMILES,efficacy (HCT116 [1]; ICRF193 0 nM),efficacy (HCT116 [1]; ICRF193 200 nM),IC50 cell viability (HCT116 [2]; ICRF193 0 nM),IC50 cell viability (HCT116 [2]; ICRF193 200 nM)
Cc1cc(-n2c(=O)[nH]c(=O)n(C)c2=O)ccc1Oc1ccc(S(=O)(=O)C(F)(F)F)cc1 [Toltrazuril (sulfone)],44.9%,–,7.3 µM,> 45.8 µM
COc1c(C)c2c(c(O)c1C/C=C(\C)CCC(=O)OCCN1CCOCC1)C(=O)OC2 [Mycophenolate mofetil],74%,74.4%,1.83 µM,1.64 µM
CC(=O)N(O)CCCCCNC(=O)CCC(=O)N(O)CCCCCNC(=O)CCC(=O)N(O)CCCCCN [Deferoxamine mesylate],99.1%,105%,29.1 µM,29.1 µM
C/C(=C\c1csc(C)n1)[C@@H]1C[C@@H]2O[C@]2(C)CCC[C@H](C)[C@H](O)[C@@H](C)C(=O)C(C)(C)[C@@H](O)CC(=O)O1 [Epothilone B],66%,45.8%,0.00517 µM,0.0073 µM
CC(CN1c2ccccc2Sc2ccccc21)N(C)C (stereo not given) [Promethazine],–,45.3%,> 45.8 µM,29.1 µM
CO[C@H](C(=O)[C@@H](O)[C@@H](C)O)[C@@H]1Cc2cc3cc(O[C@H]4C[C@@H](O[C@@H]5C[C@@H](O)[C@H](O)[C@@H](C)O5)[C@H](O)[C@@H](C)O4)c(C)c(O)c3c(O)c2C(=O)[C@H]1O[C@H]1C[C@@H](O[C@@H]2C[C@@H](O)[C@@H](O[C@@H]3C[C@](C)(O)[C@H](O)[C@@H](C)O3)[C@@H](C)O2)[C@H](O)[C@@H](C)O1 [Plicamycin],82.3%,83.7%,0.0651 µM,0.058 µM
COc1ccc(C(Cl)=C(c2ccc(OC)cc2)c2ccc(OC)cc2)cc1 [Chlorotrianisene],–,45.8%,> 45.8 µM,23.1 µM
C#CCC(Cc1cnc2nc(N)nc(N)c2n1)c1ccc(C(=O)N[C@@H](CCC(=O)O)C(=O)O)cc1 (stereo not given in full) [Pralatrexate],84.8%,85.6%,0.0082 µM,0.00651 µM
CCCCCCCCCCCCCCCCCCNC(=O)OC1CCN(C(=O)OC[C@H](COC(=O)N(Cc2cccc[n+]2CC)C(=O)c2ccccc2OC)OC)CC1 [Minopafant],111%,124%,11.6 µM,16.4 µM
CC[C@@]1([C@@H]2O[C@@H]([C@H]3O[C@@](O)(CO)[C@H](C)C[C@@H]3C)C[C@@H]2C)CC[C@H]([C@]2(C)CC[C@]3(C[C@H](O)[C@@H](C)[C@@H]([C@@H](C)[C@@H](OC)[C@H](C)C(=O)O)O3)O2)O1 [Monensin sodium salt],81.1%,83.4%,3.18 µM,3.18 µM
CCCC(=O)OC[C@@H](OC(=O)CCC)[C@@H](OC(=O)CCC)[C@H](Cn1c2nc(=O)[nH]c(=O)c-2nc2cc(C)c(C)cc21)OC(=O)CCC [Riboflavin tetrabutyrate],64.5%,82.1%,29.1 µM,18.3 µM
CC(=O)[C@H]1CC[C@H]2[C@@H]3CCC4=CC(=O)CC[C@]4(C)[C@H]3CC[C@]12C [Progesterone],43.3%,51.2%,29.1 µM,18.3 µM
Clc1ccccc1C(c1ccccc1)(c1ccccc1)n1ccnc1 [Clotrimazole],102%,94.7%,18.3 µM,16.4 µM
COC(=O)C[C@](O)(CCCC(C)(C)O)C(=O)O[C@@H]1C(OC)=C[C@]23CCCN2CCc2cc4c(cc2[C@H]13)OCO4 [Omacetaxine mepesuccinate],65.6%,66.3%,0.0651 µM,0.0461 µM
Cc1cc(/C=C/C#N)cc(C)c1Nc1ccnc(Nc2ccc(C#N)cc2)n1 [Rilpivirine],83.7%,84.8%,20.6 µM,18.3 µM
O=c1[nH]c(=O)n([C@H]2C[C@H](O)[C@@H](CO)O2)cc1C(F)(F)F [Trifluridine],49.1%,59%,29.1 µM,8.2 µM
CC(C(O)c1ccccc1)N(C)CCOC(c1ccccc1)c1ccccc1 (stereo not given) [Difeterol],83%,85.3%,29.1 µM,23.1 µM
CCOC(=O)Oc1c(OC)cc(C(=O)O[C@@H]2C[C@@H]3CN4CCc5c([nH]c6cc(OC)ccc56)[C@H]4C[C@@H]3[C@H](C(=O)OC)[C@H]2OC)cc1OC [Syrosingopine],112%,101%,29.1 µM,16.4 µM
CN(C)CCC=C1c2ccccc2CCc2ccccc21 [Amitriptyline hydrochloride],–,51.6%,> 45.8 µM,18.3 µM
CC(=O)OCC1=C(C(=O)O)N2C(=O)[C@@H](NC(=O)[C@H](N)c3ccccc3)[C@H]2SC1 [Cephaloglycin],–,61.5%,> 45.8 µM,6.51 µM
COC(=O)[C@H]1[C@H]2C[C@@H]3c4[nH]c5cc(OC)ccc5c4CCN3C[C@H]2C[C@@H](OC(=O)c2cc(OC)c(OC)c(OC)c2)[C@@H]1OC [Reserpine],–,42.6%,> 45.8 µM,16.4 µM
CN(C)c1ccc2nc3ccc(=[N+](C)C)cc-3sc2c1 [Methylene blue],109%,91.6%,3.66 µM,2.31 µM
CCCCCCCCCCCC[n+]1ccc2ccccc2c1 [2-Dodecylisoquinolinium tosylate],101%,103%,7.3 µM,4.61 µM
OCc1cc(C(O)CNCCCCCCOCCCCc2ccccc2)ccc1O (stereo not given) [Salmeterol xinafoate],108%,110%,23.1 µM,23.1 µM
